The text below walks through data of patent US12667584B2, “Adenosine analog and its use in regulating the circadian clock” (NATIONAL INSTITUTE OF BIOLOGICAL SCIENCES, BEIJING, priority 2017, dated 2026).

A short description of series [1]: HPLC-MASS analysis of CSF after tail vein injection. As to conditions: 15 mg/kg tail vein. Format: in vivo, rat. On the procedure: HPLC-MASS analysis CSF: 8 W SD rats are bought from Beijing Vital River, housed in individually cage in a temperature- and humidity-controlled SPF facility, with ad libitum access to food and water. The animals were entrained under 12 h light/dark photoperiod for two weeks to synchronize the endogenous circadian clock of the mice to the ambient light-dark cycle, light intensity is about 50˜100 lux. […] Finally, each 450 μl supernatant was collected into a new 1.5 ml tube, dried with SpeedVac and analyzed with HPLC-MASS facility.
To test whether cordycepin function in vivo, we firstly tested luciferase signal level by live imaging of Per2:LUC mice after intraperitoneal injection of 15 mg/kg cordycepin or DMSO. […] Prior evaluation the jet-leg cure ability of cordycepin, we detected whether cordycepin and it's prodrug pro-CA03 can penetrate BBB. We injected cordycepin or pro-CA03 via tail vein and time course sampled CSF and analyzed cordycepin pro-CA03 level with HPLC-MASS method. […] Finally we evaluated the jet-leg cure ability of cordycepin, pro-CA03 and Pro-CA04 with mice behavioral experiment. […]

The nature of series [2]: Cordycepin concentration in CSF after intraperitoneal injection. Format: in vivo. From the text: We measured the cordycepin concentration in cerebrospinal fluid (CSF) after the intraperitoneal (I.P.) injection.
The next series concerns C57BL/6j mice. The series can be described thus: Wheel running jet-lag experiment, 8 h phase advance or delay. The class given is in vivo, mouse. On the procedure: Wheel running experiment: Male C57Bj/6 mice at 7 w old were purchased from the Nanjing Biomedical Research Institute of Nanjing University introduced from Jackson Laboratory, housed in individually wheel-running cage in a temperature- and humidity-controlled SPF facility, with ad libitum access to food and water. The animals were entrained under 12 h light/dark photoperiod for two weeks to synchronize the endogenous circadian clock of the mice to the ambient light-dark cycle, light intensity is about 50˜100 lux. After synchronization, light-dark cycles were 8-hr phase-advanced or phase-delayed. On the day of light-dark cycle was shifted advance, mice were firstly fasted at CT 3, then 15 mg/kg bw CA03, 15 and 30 mg/kg bw pro-CA03, 15 and 30 mg/kg bw pro-CA04 or DMSO were intraperitoneal injection at CT 12, and light on time (CT 0) was shifted from 7 am to 11 pm), finally re-feed and inject drug again at CT 23 of the old light-dark cycle. CA03 and pro-CA04 were firstly dissolved in DMSO to the concentration of 200 μg/μl, then dilute with saline to the final concentration of 1000 μg/ml for intraperitoneal injection. Pro-03 was firstly dissolved in DMSO to the concentration of 200 μg/μl, then dilute with 2% tween80 (in sterilized water) to the final concentration of 1000 μg/ml for intraperitoneal injection. On the day of light-dark cycle was shifted delayed, mice were firstly fasted at ZT 3, then 15 mg/kg bw CA03, 15 and 30 mg/kg bw pro-CA03, 15 and 30 mg/kg bw pro-CA04 or DMSO were intraperitoneal injection at CT 12, and light off time (CT12) was shifted from […] to 3 am), finally re-feed and inject drug again at CT 23 of the old light-dark cycle. Locomotor activity was recorded in 10-min bins wheel running (Actimetrics), and the data obtained were analysed with Clocklab software (Actimetrics). All animal experimental procedures were performed in accordance with the protocol approved by the Institutional Animal Care and Usage Committee (IACUC) of the National Institute of Biological Sciences, Beijing.
Under a standard jet-lag protocol {Yamaguchi, 2013}, wild-type C57BL/6j mice usually take ˜10 d to adapt to 8 h phase advance. […] Similarly, the drug treated mice adapt faster to the phase delay (FIG. 2D&2E).
To test whether cordycepin function in vivo, we firstly tested luciferase signal level by live imaging of Per2:LUC mice after intraperitoneal injection of 15 mg/kg cordycepin or DMSO. We found cordycepin induce more than 4 folds increase of luciferase signal in liver when compared with DMSO control (A). […] We also reconfirmed endogenous transcription rate of core clock genes by measuring the pre-mRNA with qPCR in the liver (B). We examined RRE genes (including Bmal1, Clock, Npas2, Cry1 and Nfil3), internal control genes (including Gapdh, Tbp and Actin) and E-box genes (including Per1, Per2, Dbp and Nr1d1). We designed at least 2 primers for each gene. […] Prior evaluation the jet-leg cure ability of cordycepin, we detected whether cordycepin and it's prodrug pro-CA03 can penetrate BBB. We injected cordycepin or pro-CA03 via tail vein and time course sampled CSF and analyzed cordycepin pro-CA03 level with HPLC-MASS method. […] Finally we evaluated the jet-leg cure ability of cordycepin, pro-CA03 and Pro-CA04 with mice behavioral experiment. Wild-type C57BL/6j mice typically take ˜10 days to adapt to an 8 h phase advance. […]

`Nc1ncnc2c1ncn2[C@@H]1O[C@H](CO)C[C@H]1O` [Cordycepin, 3′-deoxy-adenosine]: in series [1], the “time of peak concentration in CSF after injection” value is on record as 1 min. Further, the “time of detection in the CSF after the injection” value in series [2] is listed as not above 15 min. In the series on C57BL/6j mice (DMSO 6 days), the “adaptation time in phase-delay assay” value was 3 days. In the series on C57BL/6j mice (twice injection, DMSO ~10 d), the “adaptation time to 8 h phase advance” value was found to be 4 days.
